The target of one data set is T1, Hexokinase-4 (Homo sapiens, UniProt P35557).
T1 sequence (P35557 whole entry): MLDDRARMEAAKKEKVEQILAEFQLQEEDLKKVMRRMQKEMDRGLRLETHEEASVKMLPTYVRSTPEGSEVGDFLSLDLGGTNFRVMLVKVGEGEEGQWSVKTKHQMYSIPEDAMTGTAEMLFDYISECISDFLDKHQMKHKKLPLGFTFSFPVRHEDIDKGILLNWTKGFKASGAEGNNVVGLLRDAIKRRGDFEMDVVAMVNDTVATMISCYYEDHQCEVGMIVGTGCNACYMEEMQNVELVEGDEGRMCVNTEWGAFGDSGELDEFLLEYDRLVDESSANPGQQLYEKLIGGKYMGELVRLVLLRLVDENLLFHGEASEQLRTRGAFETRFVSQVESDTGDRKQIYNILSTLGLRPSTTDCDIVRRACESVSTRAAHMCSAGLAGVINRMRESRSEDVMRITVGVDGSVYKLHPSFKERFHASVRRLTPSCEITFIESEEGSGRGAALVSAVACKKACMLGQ
Briefly: Activation of glucokinase (unknown origin). As to conditions: read-out: pEC50 (converted).

The species named for another data set is Rattus norvegicus. Kind of data set: Unbound clearance in rat. The format is ADME, organism-based. As to conditions: in vivo.
The target in data set [1] is Voltage-gated inwardly rectifying potassium channel KCNH2 (Homo sapiens, UniProt Q12809). Briefly: Inhibition of human ERG by electrophysiological analysis.
Voltage-gated inwardly rectifying potassium channel KCNH2, sequence (Q12809 whole entry): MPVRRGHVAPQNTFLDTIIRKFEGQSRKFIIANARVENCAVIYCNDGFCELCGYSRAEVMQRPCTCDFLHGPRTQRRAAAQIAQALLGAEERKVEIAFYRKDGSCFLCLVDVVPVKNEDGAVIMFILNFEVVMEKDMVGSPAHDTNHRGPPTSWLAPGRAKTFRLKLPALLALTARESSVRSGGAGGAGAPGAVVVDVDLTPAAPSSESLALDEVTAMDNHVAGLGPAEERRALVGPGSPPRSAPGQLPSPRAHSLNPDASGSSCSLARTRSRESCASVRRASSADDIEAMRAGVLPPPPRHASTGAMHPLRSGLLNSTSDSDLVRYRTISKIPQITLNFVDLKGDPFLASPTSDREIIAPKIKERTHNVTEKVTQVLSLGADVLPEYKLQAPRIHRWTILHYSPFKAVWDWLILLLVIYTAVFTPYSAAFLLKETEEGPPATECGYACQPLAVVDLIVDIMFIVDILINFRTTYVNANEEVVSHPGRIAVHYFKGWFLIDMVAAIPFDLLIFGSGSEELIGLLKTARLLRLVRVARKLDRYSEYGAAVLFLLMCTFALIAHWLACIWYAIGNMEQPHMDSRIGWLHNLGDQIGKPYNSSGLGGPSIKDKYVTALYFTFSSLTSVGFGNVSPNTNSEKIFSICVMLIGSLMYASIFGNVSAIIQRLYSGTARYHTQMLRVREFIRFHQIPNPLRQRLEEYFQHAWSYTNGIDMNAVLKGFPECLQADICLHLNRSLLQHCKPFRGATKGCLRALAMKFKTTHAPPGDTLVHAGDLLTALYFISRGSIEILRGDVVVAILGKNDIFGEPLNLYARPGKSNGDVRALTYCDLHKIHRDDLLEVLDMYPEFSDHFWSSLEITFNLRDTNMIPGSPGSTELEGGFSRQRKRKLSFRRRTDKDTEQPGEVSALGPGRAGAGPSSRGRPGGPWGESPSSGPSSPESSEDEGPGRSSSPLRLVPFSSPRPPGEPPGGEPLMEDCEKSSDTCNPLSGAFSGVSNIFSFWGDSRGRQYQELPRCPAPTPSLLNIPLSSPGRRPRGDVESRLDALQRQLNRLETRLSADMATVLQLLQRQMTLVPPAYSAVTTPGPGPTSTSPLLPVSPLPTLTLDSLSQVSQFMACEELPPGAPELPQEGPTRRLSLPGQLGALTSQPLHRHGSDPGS
The nature of data set [2]: Clearance in rat. The following applies: in vivo. The format is ADME, organism-based.
A short description of data set [3]: Octanol-buffer partition coefficient, log D of the compound at pH 7.4 after 30 mins by shake flask method. The format is physicochemical.
Data set [4] in a line: Half life in rat plasma. The format is ADME, cell-free.
Data set [5] is described as follows: Half life at pH 6. The class given is physicochemical. As to conditions: buffer.

Some results are limits rather than exact numbers.

Experimental findings from ChEMBL document CHEMBL3217445, “Optimising pharmacokinetics of glucokinase activators with matched triplicate design sets the discovery of AZD3651 and AZD9485” (Medchemcomm, 2013) are described below.

Broadly, the IC50 is the point on the concentration scale where inhibition reaches its midpoint. Lower therefore signals higher potency. As usually defined, the clearance is the volume of plasma or blood freed of the substance per unit of time. Low values mean inefficient removal, high ones efficient removal. For orientation: logD means lipophilicity at a set pH, counting ionised and neutral species. Read a low logD as a more hydrophilic compound. In general, half-life refers to the time in which the quantity being followed falls by half.

`O=C(Nc1ccc(F)cn1)[C@H](CN1CC(O)C1)Oc1ncnc2c1cnn2-c1c(F)cccc1Cl`: the EC50 on Hexokinase-4 was 0.0501 µM. Moreover, in the data set filed under Rattus norvegicus, the CL free was 190 mL/min/kg. In addition, the IC50 in data set [1] was 25.1 µM. Moreover, the clearance in data set [2] worked out at 38 mL/min/kg. For the same compound, in data set [3], the logD at 0.5 h worked out at 2.3.
For `Cc1ccc(NC(=O)[C@H](CCO)Oc2ncnc3c2cnn3-c2ncccc2Cl)nc1`, on Hexokinase-4, the EC50 was 0.2 µM. This compound also registered a clearance in data set [2] of 11 mL/min/kg. Besides, in data set [4], the half-life is more than 300 min. For the same compound, the logD at 0.5 h in data set [3] came to 1.8.
On to `N#Cc1ccc(NC(=O)[C@H](CN2CC(O)C2)Oc2ncnc3c2cnn3-c2c(Cl)cccc2C#N)nc1`, for which the EC50 on Hexokinase-4 is 0.501 µM. Besides, the IC50 in data set [1] was 7.94 µM. This compound had a logD at 0.5 h in data set [3] of 1.9.
In the case of `O=C(Nc1ccc(Cl)cn1)[C@H](CN1CC(O)C1)Oc1ncnc2c1cnn2-c1ccccc1Cl`, the EC50 on Hexokinase-4 is 0.0631 µM. The CL free in the data set listed under Rattus norvegicus was found to be 310 mL/min/kg. In data set [1], inhibition was half-maximal at 10 µM (IC50). Further, the clearance in data set [2] was found to be 40 mL/min/kg. In data set [4], this compound came in with a half-life of 24 min. In addition, the logD at 0.5 h in data set [3] was determined as 3.1.
Regarding `N#Cc1ccc(NC(=O)[C@H](CN2CC(O)C2)Oc2ncnc3c2cnn3-c2c(Cl)cccc2Cl)nc1`, the EC50 on Hexokinase-4 is 0.251 µM. The compound also returned a CL free in the data set listed under Rattus norvegicus of 240 mL/min/kg. In data set [2], this compound gave a clearance of 64 mL/min/kg. The compound also gave a logD at 0.5 h in data set [3] of 2.6.
For the compound `N#Cc1cccc(Cl)c1-n1ncc2c(O[C@@H](COCCO)C(=O)Nc3ccc(F)cn3)ncnc21`, the EC50 at Hexokinase-4 was 0.501 µM. The compound further showed a CL free in the data set filed under Rattus norvegicus of 140 mL/min/kg. The same compound showed an IC50 in data set [1] of 63.1 µM. Moreover, the clearance in data set [2] came to 19 mL/min/kg. In data set [3], this compound came in with a logD at 0.5 h of 2.
In turn, `C[C@H](CO)OC[C@H](Oc1ncnc2c1cnn2-c1ncccc1Cl)C(=O)Nc1ccc(C#N)cn1` displayed a CL free in the data set listed under Rattus norvegicus of 29 mL/min/kg. The half-life was more than 23 days in data set [5] and 106 min in data set [4]. Also, the clearance in data set [2] was 14 mL/min/kg. Besides, the logD at 0.5 h in data set [3] worked out at 1.5.
For the compound `CC(C)OC[C@H](Oc1ncnc2c1cnn2-c1ncccc1Cl)C(=O)Nc1ccc(Cl)cn1`, the CL free in the data set filed under Rattus norvegicus is 120 mL/min/kg. The half-life in data set [5] is more than 23 days; in data set [4], 14 min. In data set [2], this compound returned a clearance of 11 mL/min/kg.
As for `O=C(Nc1ccc(F)cn1)[C@H](COCCO)Oc1ncnc2c1cnn2-c1c(Cl)cccc1Cl`, the EC50 at Hexokinase-4 is 0.126 µM. This compound also returned a CL free in the data set listed under Rattus norvegicus of 120 mL/min/kg. For the same compound, half-maximal inhibition in data set [1] (IC50) required 20 µM. Further, the clearance in data set [2] worked out at 15 mL/min/kg. The compound also gave a logD at 0.5 h in data set [3] of 2.7.
`N#Cc1ccc(NC(=O)[C@H](COCCO)Oc2ncnc3c2cnn3-c2ncccc2Cl)nc1`: the EC50 on Hexokinase-4 is 1.58 µM. The same compound yielded a CL free in the data set listed under Rattus norvegicus of 28 mL/min/kg. The clearance in data set [2] was found to be 13 mL/min/kg. This compound had a half-life in data set [4] of 115 min.
As to `O=C(Nc1ccc(Cl)cn1)[C@H](COCCO)Oc1ncnc2c1cnn2-c1ncccc1Cl`, the EC50 on Hexokinase-4 is 0.501 µM. In addition, in the data set filed under Rattus norvegicus, the CL free was determined as 70 mL/min/kg. In data set [1], this compound showed an IC50 of 50.1 µM. The compound further registered a clearance in data set [2] of 15 mL/min/kg. Besides, in data set [4], the half-life worked out at 31 min. This compound gave a logD at 0.5 h in data set [3] of 2.1.
Turning to `O=C(Nc1ccccn1)[C@H](CN1CC(O)C1)Oc1ncnc2c1cnn2-c1ccccc1Cl`, at Hexokinase-4, the EC50 is 0.2 µM. For the same compound, the CL free in the data set listed under Rattus norvegicus came to 420 mL/min/kg. The compound further yielded an IC50 in data set [1] of more than 100 µM. The clearance in data set [2] amounted to 170 mL/min/kg. The compound further returned a logD at 0.5 h in data set [3] of 2.
As to `C[C@@H](CO)OC[C@H](Oc1ncnc2c1cnn2-c1ncccc1Cl)C(=O)Nc1ccc(C#N)cn1`, the EC50 at Hexokinase-4 was more than 100 µM. This compound also came in with a half-life in data set [4] of 115 min. In data set [3], this compound registered a logD at 0.5 h of 1.5.
For the compound `O=C(Nc1ccc(F)cn1)[C@H](COCCO)Oc1ncnc2c1cnn2-c1ccccc1Cl`, the EC50 at Hexokinase-4 is 0.631 µM. This compound also returned a CL free in the data set listed under Rattus norvegicus of 220 mL/min/kg. Besides, the IC50 in data set [1] was 39.8 µM. This compound also yielded a clearance in data set [2] of 45 mL/min/kg. The compound further gave a logD at 0.5 h in data set [3] of 2.4.
Consider `CC(C)OC[C@H](Oc1ncnc2c1cnn2-c1ncccc1Cl)C(=O)Nc1ccc(F)cn1`, for which, in the data set filed under Rattus norvegicus, the CL free was 600 mL/min/kg. In addition, the half-life is more than 23 days in data set [5] and 7 min in data set [4]. In data set [2], the clearance is 130 mL/min/kg.
As for `O=C(Nc1ccc(F)cn1)[C@H](COCCO)Oc1ncnc2c1cnn2-c1c(F)cccc1Cl`, at Hexokinase-4, the EC50 was 0.2 µM. Moreover, in the data set listed under Rattus norvegicus, the CL free is 110 mL/min/kg. In data set [1], the IC50 was 31.6 µM. The same compound registered a clearance in data set [2] of 15 mL/min/kg. In addition, in data set [3], the logD at 0.5 h was 2.5.
With `N#Cc1cccc(Cl)c1-n1ncc2c(O[C@@H](CN3CC(O)C3)C(=O)Nc3ccc(F)cn3)ncnc21`, the EC50 at Hexokinase-4 is 0.2 µM. In the data set listed under Rattus norvegicus, this compound displayed a CL free of 260 mL/min/kg. The compound also had a clearance in data set [2] of 32 mL/min/kg. The same compound gave a logD at 0.5 h in data set [3] of 2.
Regarding `C[C@@H](CO)OC[C@H](Oc1ncnc2c1cnn2-c1ncccc1Cl)C(=O)Nc1ccc(Cl)cn1`, on Hexokinase-4, the EC50 is 3.16 µM. Also, the half-life in data set [4] worked out at 12 min. The compound further registered a logD at 0.5 h in data set [3] of 2.4.
`O=C(Nc1ccccn1)[C@H](CN1CC(O)C1)Oc1ncnc2c1cnn2-c1c(F)cccc1Cl`: in the data set filed under Rattus norvegicus, the CL free came out at 250 mL/min/kg. For the same compound, the clearance in data set [2] was 81 mL/min/kg. The compound also had a logD at 0.5 h in data set [3] of 2.3.
Turning to `CC(C)OC[C@H](Oc1ncnc2c1cnn2-c1ccccc1Cl)C(=O)Nc1ccc(Cl)cn1`, the CL free in the data set listed under Rattus norvegicus is 1500 mL/min/kg. The IC50 in data set [1] is 15.8 µM. The compound further gave a clearance in data set [2] of 33 mL/min/kg. The same compound displayed a half-life in data set [4] of 19 min. In data set [3], this compound yielded a logD at 0.5 h of more than 4.3.
For the compound `O=C(Nc1ccc(Cl)cn1)[C@H](COCCO)Oc1ncnc2c1cnn2-c1ccccc1Cl`, the EC50 at Hexokinase-4 is 0.2 µM. This compound came in with a CL free in the data set listed under Rattus norvegicus of 120 mL/min/kg. The clearance in data set [2] was 11 mL/min/kg. Besides, the half-life in data set [4] was found to be 86 min. In data set [3], this compound gave a logD at 0.5 h of 3.1.
With `CC(C)OC[C@H](Oc1ncnc2c1cnn2-c1ncccc1Cl)C(=O)Nc1ccc(C#N)cn1`, the CL free in the data set listed under Rattus norvegicus came to 81 mL/min/kg. Besides, the values for the half-life in data set [5] and in data set [4] were more than 23 days and 22 min, respectively. In data set [2], this compound displayed a clearance of 21 mL/min/kg.
For `N#Cc1ccc(NC(=O)[C@H](CN2CC(O)C2)Oc2ncnc3c2cnn3-c2ccccc2Cl)nc1`, the EC50 at Hexokinase-4 is 0.2 µM. In the data set filed under Rattus norvegicus, this compound returned a CL free of 110 mL/min/kg. The IC50 in data set [1] is 10 µM. Besides, in data set [2], the clearance was found to be 30 mL/min/kg. Further, in data set [3], the logD at 0.5 h is 2.1.
Consider `C[C@@H](CO)OC[C@H](Oc1ncnc2c1cnn2-c1ncccc1Cl)C(=O)Nc1ccc(F)cn1`, for which the EC50 at Hexokinase-4 is 2.51 µM. The same compound displayed a CL free in the data set filed under Rattus norvegicus of 76 mL/min/kg. In data set [1], the half-maximal inhibitory concentration (IC50) is more than 100 µM. In data set [2], this compound gave a clearance of 38 mL/min/kg. Also, the half-life in data set [4] turned out to be 1 min. In data set [3], the logD at 0.5 h was determined as 1.7.
Regarding `O=C(Nc1ccc(Cl)cn1)[C@H](CN1CC(O)C1)Oc1ncnc2c1cnn2-c1ncccc1Cl`, the EC50 on Hexokinase-4 was 0.316 µM. The compound further had a CL free in the data set filed under Rattus norvegicus of 140 mL/min/kg. Further, inhibition in data set [1] was half-maximal at 50.1 µM (IC50). The clearance in data set [2] worked out at 38 mL/min/kg. Besides, the half-life in data set [4] is 45 min. This compound also showed a logD at 0.5 h in data set [3] of 2.
With `O=C(Nc1ccc(F)cn1)[C@H](CN1CC(O)C1)Oc1ncnc2c1cnn2-c1ncccc1Cl`, the EC50 on Hexokinase-4 was 0.316 µM. Further, the CL free in the data set filed under Rattus norvegicus was found to be 31 mL/min/kg. This compound came in with an IC50 in data set [1] of more than 100 µM. The compound further gave a clearance in data set [2] of 21 mL/min/kg. Besides, in data set [4], the half-life worked out at 62 min. Moreover, the log distribution coefficient (logD) at 0.5 h in data set [3] was 1.3.
